# Measurements reported in ChEMBL document CHEMBL5154804, “Species-Selective Targeting of Fungal Hsp90: Design, Synthesis, and Evaluation of Novel 4,5-Diarylisoxazole Derivatives for the Combination Treatment of Azole-Resistant Candidiasis” (J Med Chem, 2022).
# Assays:
# [1] = tested on: Candida albicans; test: Synergistic antifungal activity against fluconazole-resistant Candida albicans 904 assessed as inhibition of fungal growth in presence of fluconazole by checker board microdilution assay; format: functional
# [2] = tested on: Candida albicans; test: Synergistic antifungal activity against fluconazole-resistant Candida albicans 632 assessed as inhibition of fungal growth in presence of fluconazole by checker board microdilution assay; format: functional
# [3] = tested on: Candida albicans; test: Synergistic antifungal activity against fluconazole-resistant Candida albicans 311 assessed as inhibition of fungal growth in presence of fluconazole by checker board microdilution assay; format: functional
# [4] = tested on: Candida albicans; test: Synergistic antifungal activity against fluconazole-resistant Candida albicans 103 assessed as inhibition of fungal growth in presence of fluconazole by checker board microdilution assay; format: functional
# [5] = tested on: Candida albicans; test: Synergistic antifungal activity against fluconazole-resistant Candida albicans 100 assessed as inhibition of fungal growth in presence of fluconazole by checker board microdilution assay; format: functional
# [6] = tested on: Candida albicans; test: Synergistic antifungal activity against fluconazole-resistant Candida albicans 901 assessed as inhibition of fungal growth in presence of fluconazole by checker board microdilution assay; format: functional
# [7] = Binding affinity to recombinant Candida albicans Hsp90 NBD expressed in Escherichia coli by SPR assay
# [8] = Metabolic stability in human liver microsomes assessed as compound remaining in presence of NADPH cofactor under shaking condition for 10 mins measured after 60 mins by LC-MS/MS analysis; format: ADME, Microsome; conditions: time 70 min, read-out: Stability
# [9] = Metabolic stability in human liver microsomes assessed as half life in presence of NADPH cofactor under shaking condition for 10 mins measured after 5 to 60 mins by LC-MS/MS analysis; format: ADME, Microsome; conditions: time 15-70 min
# [10] = Metabolic stability in human liver microsomes assessed as microsomal intrinsic clearance in presence of NADPH cofactor under shaking condition for 10 mins measured after 5 to 60 mins by LC-MS/MS analysis; format: ADME, Microsome; conditions: time 15-70 min
# [11] = Metabolic stability in human liver microsomes assessed as intrinsic clearance in presence of NADPH cofactor under shaking condition for 10 mins measured after 5 to 60 mins by LC-MS/MS analysis; format: ADME, Microsome; conditions: time 15-70 min
# [12] = biological target: Heat shock protein HSP90 (Homo sapiens, UniProt P07900+P08238); test: Binding affinity to human Hsp90 expressed in Escherichia coli by SPR assay
Compound,MIC80 [1] [µg/mL],MIC80 [2] [µg/mL],MIC80 [3] [µg/mL],MIC80 [4] [µg/mL],MIC80 [5] [µg/mL],MIC80 [6] [µg/mL],Kd [7] [µM],remaining at 1.167 h [8] [%],half-life [9] [min],CLint [10] [µL/min/mg],CLint [11] [mL/min/kg],Kd [12] [µM]
C[C@@H]1C[C@H]2O[C@@H]2/C=C\C=C\C(=O)Cc2c(Cl)c(O)cc(O)c2C(=O)O1 [RADICICOL],0.5,1,1,1,0.5,1,0.002,,,,,
CCNC(=O)c1noc(-c2cc(-c3cccc(CC)c3)c(O)cc2O)c1-c1ccc(CN2CCOCC2)cc1,0.5,0.5,0.5,1,0.25,0.25,,9.2,17.2,80.7,72.7,
CCNC(=O)c1noc(-c2cc(-c3ccccc3C)c(O)cc2O)c1-c1ccc(CN2CCOCC2)cc1,> 64,> 64,> 64,> 64,> 64,> 64,> 25,,,,,> 25
CCNC(=O)c1noc(-c2cc(-c3cccc(C(C)C)c3)c(O)cc2O)c1-c1ccc(CN2CCOCC2)cc1,0.25,0.5,0.5,0.25,0.25,0.25,0.476,6.1,15.1,91.9,82.7,> 25
Cc1ccc(-c2cc(-c3onc(C(=O)NC4COC4)c3-c3ccc(CN4CCOCC4)cc3)c(O)cc2O)cc1,> 64,> 64,> 64,> 64,> 64,> 64,,,,,,
Cc1ccc(-c2cc(-c3onc(C(=O)NC4CCC4)c3-c3ccc(CN4CCCCC4)cc3)c(O)cc2O)cc1,2,1,2,4,2,4,,,,,,
CCNC(=O)c1noc(-c2cc(-c3ccc(C)cc3)c(O)cc2O)c1-c1ccc(CN2CC(C)CC(C)C2)cc1 (configuration not stated),1,2,2,16,4,0.5,,,,,,
CCNC(=O)c1noc(-c2cc(-c3ccc(-c4ccccc4)cc3)c(O)cc2O)c1-c1ccc(CN2CCOCC2)cc1,> 64,> 64,> 64,> 64,> 64,> 64,,,,,,
CCNC(=O)c1noc(-c2cc(-c3ccccc3C(C)C)c(O)cc2O)c1-c1ccc(CN2CCOCC2)cc1,> 64,> 64,> 64,> 64,> 64,> 64,,,,,,
CCNC(=O)c1noc(-c2cc(-c3ccc(C(C)C)cc3)c(O)cc2O)c1-c1ccc(CN2CCOCC2)cc1,> 64,> 64,> 64,> 64,> 64,> 64,,,,,,
CCNC(=O)c1noc(-c2cc(-c3ccc(C)cc3)c(O)cc2O)c1-c1ccc(CNC2CCOCC2)cc1,> 64,> 64,> 64,> 64,> 64,> 64,,,,,,
CCNC(=O)c1noc(-c2cc(-c3ccccc3F)c(O)cc2O)c1-c1ccc(CN2CCOCC2)cc1,> 64,> 64,> 64,> 64,> 64,> 64,,,,,,
CCNC(=O)c1noc(-c2cc(-c3cccc(C(C)(C)C)c3)c(O)cc2O)c1-c1ccc(CN2CCOCC2)cc1,> 64,> 64,> 64,> 64,> 64,> 64,,,,,,
Cc1ccc(-c2cc(-c3onc(C(=O)N4CCC4)c3-c3ccc(CN4CCOCC4)cc3)c(O)cc2O)cc1,16,> 64,> 64,> 64,8,16,,,,,,
CCNC(=O)c1noc(-c2cc(-c3ccc(C)cc3)c(O)cc2O)c1-c1ccc(CN2CCN(C)CC2)cc1,> 64,> 64,> 64,> 64,> 64,64,,,,,,
Cc1ccc(-c2cc(-c3onc(C(=O)N4CCCC4)c3-c3ccc(CN4CCOCC4)cc3)c(O)cc2O)cc1,> 64,> 64,> 64,> 64,> 64,> 64,,,,,,
Cc1ccc(-c2cc(-c3onc(C(=O)N4CCC4)c3-c3ccc(CN4CCCCC4)cc3)c(O)cc2O)cc1,> 64,> 64,16,> 64,> 64,16,,,,,,
CCNC(=O)c1noc(-c2cc(-c3ccc(C(C)(C)C)cc3)c(O)cc2O)c1-c1ccc(CN2CCOCC2)cc1,> 64,> 64,> 64,> 64,> 64,> 64,,,,,,
CCNC(=O)c1noc(-c2cc(-c3cccc(F)c3)c(O)cc2O)c1-c1ccc(CN2CCOCC2)cc1,1,2,4,16,8,2,,,,,,
CCNC(=O)c1noc(-c2cc(-c3cccc(Cl)c3)c(O)cc2O)c1-c1ccc(CN2CCOCC2)cc1,0.25,0.5,1,0.5,1,1,,12.1,19.3,72,64.8,
CCNC(=O)c1noc(-c2cc(-c3ccc(OC(F)(F)F)cc3)c(O)cc2O)c1-c1ccc(CN2CCOCC2)cc1,> 64,> 64,> 64,> 64,> 64,> 64,,,,,,
CCCNC(=O)c1noc(-c2cc(-c3ccc(C)cc3)c(O)cc2O)c1-c1ccc(CN2CCCCC2)cc1,2,4,8,4,8,4,,,,,,
CCNC(=O)c1noc(-c2cc(-c3ccccc3)c(O)cc2O)c1-c1ccc(CN2CCOCC2)cc1,2,4,4,4,2,1,7.91,,,,,> 25
